# Data published in patent publication EP4603105A1, “PHARMACEUTICAL COMPOSITION CONTAINING CYCLIC COMPOUND HAVING SELECTIVE KRAS INHIBITORY EFFECT AGAINST HRAS AND NRAS” (CHUGAI SEIYAKU KABUSHIKI KAISHA, priority 2022, dated 2024).
# Where a SMILES comes first, the peptide text is derived from it. Bridges are numbered along the chain shown (N, C = ends). [ ]: non-standard residue; d: D form. The star is where a group is joined. hPhe(3,5-F2-4-CF3) = N[C@@H](CCc1cc(F)c(C(F)(F)F)c(F)c1)C(=O)O; hPhe(3-Cl-4-CF3) = N[C@@H](CCc1ccc(C(F)(F)F)c(Cl)c1)C(=O)O; NPrPhe(4-CF3) = CCCN[C@@H](Cc1ccc(C(F)(F)F)cc1)C(=O)O; NMeGly(cPent) = CN[C@H](C(=O)O)C1CCCC1; Pro(4,4-F2) = O=C(O)[C@@H]1CC(F)(F)CN1; αMeCha = C[C@](N)(CC1CCCCC1)C(=O)O; NMeD = CN[C@@H](CC(=O)O)C(=O)O; NMeL = CN[C@@H](CC(C)C)C(=O)O; NMeAbu = CC[C@H](NC)C(=O)O; αMeS = C[C@](N)(CO)C(=O)O; Morpholide = C1CN(*)CCO1; Ac5c = NC1(C(=O)O)CCCC1; Aze = O=C(O)[C@@H]1CCN1; NPrGly = CCCNCC(=O)O; Sar = CNCC(=O)O; Allyl = C=CC*
# How the values were obtained:
# [1] = molecular target: GDP-bound NRAS wild-type protein (Homo sapiens, UniProt P01111); test: Binding to NRAS by surface plasmon resonance (SPR), KD and KD ratio to KRAS
# Chain of GDP-bound NRAS wild-type protein (P01111 whole entry): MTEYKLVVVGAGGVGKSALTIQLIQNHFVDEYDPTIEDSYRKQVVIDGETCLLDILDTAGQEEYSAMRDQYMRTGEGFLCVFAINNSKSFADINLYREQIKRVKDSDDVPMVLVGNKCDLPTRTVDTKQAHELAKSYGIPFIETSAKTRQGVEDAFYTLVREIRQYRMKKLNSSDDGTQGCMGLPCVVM
# Method in brief: (§1)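 Biotinylated GDP-bound RAS was captured at about 100–300 RU. Running buffer: HBS pH 7.4, 10 mM MgCl2, 10 µM GDP, 1 mM DTT, 0.01% Tween 20, 4% DMSO.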
# HRAS wild-type protein = HRAS wild-type protein (Homo sapiens, UniProt P01112); test: Binding to HRAS by surface plasmon resonance (SPR), KD and KD ratio to KRAS
# Chain of HRAS wild-type protein (P01112 whole entry): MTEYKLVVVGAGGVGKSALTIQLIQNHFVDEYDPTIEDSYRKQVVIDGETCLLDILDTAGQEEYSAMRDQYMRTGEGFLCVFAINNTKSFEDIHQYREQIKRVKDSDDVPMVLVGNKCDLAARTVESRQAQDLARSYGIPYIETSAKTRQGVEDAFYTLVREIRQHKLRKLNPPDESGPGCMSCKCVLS
# Method in brief: as §1
# [2] = system: human lung cancer strain NCI-H441; assay type: cell-based
# Method in brief: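 Step one: dispense the test compound in serial DMSO dilutions. Step three: add the reagent and measure […].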
# [3] = ratio of KD for GDP-bound NRAS wild-type protein to KD for KRAS
# [4] = ratio of KD for HRAS wild-type protein to KD for KRAS
# [5] = ratio of the KD value with respect to GDP-bound NRAS wild-type protein to the KD value with respect to KRAS
# [6] = ratio of the KD value with respect to HRAS wild-type protein to the KD value with respect to KRAS
# [7] = ratio of KD value for GDP-bound NRAS wild-type protein to KD value for KRAS (SPR)
# [8] = ratio of KD value for HRAS wild-type protein to KD value for KRAS (SPR)
IC50 [2] [nM],SMILES,"NRAS /KRAS [1, 3]",HRAS /KRAS (HRAS wild-type protein; [4]),"NRAS /KRAS [1, 5]",HRAS /KRAS (HRAS wild-type protein; [6]),"NRAS /KRAS [1, 7]",HRAS /KRAS (HRAS wild-type protein; [8])
61.3,C#CC[C@H]1C(=O)N[C@@H]([C@@H](C)CC)C(=O)N(C)CC(=O)N(C)[C@H]2C/C=C\CCN(C2=O)[C@@H](Cc2ccc(C(F)(F)F)cc2)C(=O)N(C)CC(=O)N[C@@H](CCc2ccc(C(F)(F)F)c(OC)c2)C(=O)N2CC[C@H]2C(=O)NC2(CC(C)(C)C2)C(=O)N(C)[C@@H](C2CCCC2)C(=O)N(C)[C@H](C(=O)N(C)C)CC(=O)N1C [PP2909],B (a compound having 3 or more and less than 10 is denoted as B),B (a compound having 3 or more and less than 10 is denoted as B),,,,
9.1,CCCN1CC(=O)N2CC[C@H]2C(=O)N(CCC)[C@@H](Cc2ccc(C(F)(F)F)cc2)C(=O)N(C)CC(=O)N[C@@H](CCc2ccc(C(F)(F)F)c(Cl)c2)C(=O)N2CCC[C@H]2C(=O)NC2(CCCC2)C(=O)N(C)[C@@H](C2CCCC2)C(=O)N(C)[C@H](C(=O)N2CCOCC2)CC(=O)N(C)[C@@H](CC(C)C)C(=O)N[C@@H]([C@@H](C)CC)C1=O [PP0274] ([NMeL]I[NPrGly][Aze][NPrPhe(4-CF3)][Sar][hPhe(3-Cl-4-CF3)]P[Ac5c][NMeGly(cPent)][NMeD]-Morpholide; lactam N-11),C (A compound having a KD ratio of 0.1 or more and less than 3 is denoted as C),B (a compound having 3 or more and less than 10 is denoted as B),,,,
36.3,"C=CCOC[C@]1(C)NC(=O)[C@@H]2CCCN2C(=O)[C@H](CCc2cc(F)c(C(F)(F)F)c(F)c2)NC(=O)CN(C)C(=O)[C@H](Cc2ccc(C(F)(F)F)cc2)N(CCC)C(=O)[C@@H]2CCN2C(=O)CN(C)C(=O)[C@H]([C@@H](C)CC)NC(=O)[C@H](CC(C)C)N(C)C(=O)C[C@@H](C(=O)N2CCOCC2)N(C)C(=O)[C@H](C2CCCC2)N(C)C1=O [PP0799] ([NMeL]I[Sar][Aze][NPrPhe(4-CF3)][Sar][hPhe(3,5-F2-4-CF3)]P[αMeS](Allyl)[NMeGly(cPent)][NMeD]-Morpholide; lactam N-11)",C (A compound having a KD ratio of 0.1 or more and less than 3 is denoted as C),B (a compound having 3 or more and less than 10 is denoted as B),,,,
310,"CCCN1C(=O)CN(C)C(=O)CN(C)C(=O)[C@H]([C@@H](C)CC)NC(=O)[C@H](CC(C)C)N(C)C(=O)C[C@@H](C(=O)N2CCOCC2)N(C)C(=O)[C@H](C2CCCC2)N(C)C(=O)[C@](C)(CC2CCCCC2)NC(=O)[C@@H]2CCCN2C(=O)[C@H](CCc2cc(F)c(C(F)(F)F)c(F)c2)NC(=O)CN(C)C(=O)[C@@H]1Cc1ccc(C(F)(F)F)cc1 [PP0760] ([NMeL]I[Sar][Sar][NPrPhe(4-CF3)][Sar][hPhe(3,5-F2-4-CF3)]P[αMeCha][NMeGly(cPent)][NMeD]-Morpholide; lactam N-11)",,,B (a compound having 3 or more and less than 10 is denoted as B),C (A compound having a KD ratio of 0.1 or more and less than 3 is denoted as C),,
3.9,"CCCN1C(=O)CN(C)C(=O)CN(C)C(=O)[C@H]([C@@H](C)CC)NC(=O)[C@H](CC)N(C)C(=O)C[C@@H](C(=O)N2CCOCC2)N(C)C(=O)[C@H](C2CCCC2)N(C)C(=O)C2(CCCC2)NC(=O)[C@@H]2CC(F)(F)CN2C(=O)[C@H](CCc2ccc(C(F)(F)F)c(Cl)c2)NC(=O)CN(C)C(=O)[C@@H]1Cc1ccc(C(F)(F)F)cc1 [PP0202] ([NMeAbu]I[Sar][Sar][NPrPhe(4-CF3)][Sar][hPhe(3-Cl-4-CF3)][Pro(4,4-F2)][Ac5c][NMeGly(cPent)][NMeD]-Morpholide; lactam N-11)",B (a compound having 3 or more and less than 10 is denoted as B),C (A compound having a KD ratio of 0.1 or more and less than 3 is denoted as C),,,,
2.7,CC[C@H](C)[C@@H]1NC(=O)[C@H](CC(C)C)N(C)C(=O)C[C@@H](C(=O)N(C)C)N(C)C(=O)[C@H](C2CCCC2)N(C)C(=O)C2(CC(C)(C)C2)NC(=O)[C@@H]2CC(F)(F)CN2C(=O)[C@H](CCc2cc(F)c(C(F)(F)F)c(F)c2)NC(=O)CN(C)C(=O)[C@H](Cc2ccc(C(F)(F)F)cc2)N2CC/C=C\C[C@@H](C2=O)N(C)C(=O)CN(C)C1=O [PP1715],,,,,AA (a compound having 20 or more is denoted as AA),A (a compound having 10 or more and less than 20 is denoted as A)
27,CC[C@H](C)[C@@H]1NC(=O)[C@@H]2CCC/C=C/c3ccc(cc3)C[C@@H](C(=O)N(C)CC(=O)N[C@@H](CCc3ccc(Cl)c(Cl)c3)C(=O)N3C[C@H](OC4CCC4)C[C@H]3C(=O)NC3(CC(C)(C)C3)C(=O)N(C)[C@@H](C3CCCC3)C(=O)N(C)[C@H](C(=O)N3CCCC3)CC(=O)N2C)N2CC/C=C\C[C@@H](C2=O)N(C)C(=O)CN(C)C1=O [PP3053],A (a compound having 10 or more and less than 20 is denoted as A),A (a compound having 10 or more and less than 20 is denoted as A),,,,
11.4,CC[C@H](C)[C@@H]1NC(=O)[C@H](CC)N(C)C(=O)C[C@@H](C(=O)N(C)C)N(C)C(=O)[C@H](C2CCCC2)N(C)C(=O)C2(CCC2)N(C)C(=O)[C@@H]2CCCN2C(=O)[C@H](CCc2cc(F)c(C(F)(F)F)c(F)c2)NC(=O)CN(C)C(=O)[C@H](Cc2ccc(C)cc2)N2CC/C=C\C[C@@H](C2=O)N(C)C(=O)[C@@H]2CCCN2C1=O [PP1786],,,,,A (a compound having 10 or more and less than 20 is denoted as A),B (a compound having 3 or more and less than 10 is denoted as B)
6.2,CCO[C@@H]1C[C@H]2C(=O)NC3(CCC3)C(=O)N(C)[C@@H](C3CCCC3)C(=O)N(C)[C@H](C(=O)N(C)C)CC(=O)N(C)[C@@H](CC)C(=O)N[C@@H]([C@@H](C)CC)C(=O)N(C)CC(=O)N(C)[C@H]3CCCCN(C3=O)[C@@H](Cc3ccc(C(F)(F)F)cc3)C(=O)N(C)CC(=O)N[C@@H](CCc3ccc(C(F)(F)F)c(OC)c3)C(=O)N2C1 [PP0884],C (A compound having a KD ratio of 0.1 or more and less than 3 is denoted as C),C (A compound having a KD ratio of 0.1 or more and less than 3 is denoted as C),,,,
3.3,C#CC[C@H]1C(=O)N[C@@H]([C@@H](C)CC)C(=O)N(C)CC(=O)N(C)[C@H]2CCCCN(C2=O)[C@@H](Cc2ccc(C(F)(F)F)cc2)C(=O)N(C)CC(=O)N[C@@H](CCc2cc(F)c(C(F)(F)F)c(F)c2)C(=O)N2C[C@H](OCC)C[C@H]2C(=O)NC2(CCC2)C(=O)N(C)[C@@H](C2CCCC2)C(=O)N(C)[C@H](C(=O)N(C)C)CC(=O)N1C [PP0696],,,B (a compound having 3 or more and less than 10 is denoted as B),B (a compound having 3 or more and less than 10 is denoted as B),,
101,CC[C@H](C)[C@@H]1NC(=O)[C@H](COC)N(C)C(=O)C[C@@H](C(=O)N2CCOCC2)N(C)C(=O)[C@H](C2CCCC2)N(C)C(=O)C2(CCCC2)NC(=O)[C@@H]2CCCN2C(=O)[C@H](CCc2ccc(C(F)(F)F)c(Cl)c2)NC(=O)CN(C)C(=O)[C@H](Cc2ccc(F)cc2)N2CCCCC[C@@H](C2=O)N(C)C(=O)CN(C)C1=O [PP0960],B (a compound having 3 or more and less than 10 is denoted as B),B (a compound having 3 or more and less than 10 is denoted as B),,,,
18.2,CCC(CC)[C@@H]1NC(=O)[C@H](CC(C)C)N(C)C(=O)C[C@@H](C(=O)N2CCOCC2)N(C)C(=O)[C@H](C2CCCC2)N(C)C(=O)C2(CCCC2)NC(=O)[C@@H]2CCCN2C(=O)[C@H](CCc2cc(F)c(C(F)(F)F)c(F)c2)NC(=O)CN(C)C(=O)[C@H](Cc2ccc(C(F)(F)F)cc2)N2CCCC[C@@H](C2=O)N(C)C(=O)CN(C)C1=O [PP0597],,,B (a compound having 3 or more and less than 10 is denoted as B),B (a compound having 3 or more and less than 10 is denoted as B),,
78,CC[C@H](C)[C@@H]1NC(=O)[C@H](CC(C)C)N(C)C(=O)C[C@@H](C(=O)N2CCOCC2)N(C)C(=O)[C@H](C2CCCC2)N(CC)C(=O)C2(CCCC2)NC(=O)[C@@H]2CCCN2C(=O)[C@H](CCc2cc(F)c(C(F)(F)F)c(F)c2)NC(=O)CN(C)C(=O)[C@H](Cc2ccc(C(F)(F)F)cc2)N2CCCC[C@@H](C2=O)N(C)C(=O)CN(C)C1=O [PP0538],,,B (a compound having 3 or more and less than 10 is denoted as B),B (a compound having 3 or more and less than 10 is denoted as B),,
11.1,CC[C@H](C)[C@@H]1NC(=O)[C@H](CC(C)C)N(C)C(=O)C[C@@H](C(=O)N(C)C)N(C)C(=O)[C@H](C2CCCC2)N(C)C(=O)C2(CCC2)NC(=O)[C@@H]2C[C@@H](C)CN2C(=O)[C@H](CCc2cc(F)c(C(F)(F)F)c(F)c2)NC(=O)CN(C)C(=O)[C@H](Cc2ccc(C)cc2)N2CC/C=C\C[C@@H](C2=O)N(C)C(=O)CN(C)C1=O [PP1866],,,,,A (a compound having 10 or more and less than 20 is denoted as A),B (a compound having 3 or more and less than 10 is denoted as B)
4.1,CCC[C@H]1C(=O)N[C@@H]([C@@H](C)CC)C(=O)N(C)CC(=O)N(C)[C@H]2C/C=C\CCN(C2=O)[C@@H](Cc2ccc(C)cc2)C(=O)N(C)CC(=O)N[C@@H](CCc2cc(F)c(C(F)(F)F)c(F)c2)C(=O)N2CC3(CC3)C[C@H]2C(=O)NC2(CC(C)(C)C2)C(=O)N(C)[C@@H](CC(C)(C)C)C(=O)N(C)[C@H](C(=O)N(C)C)CC(=O)N1C [PP2997],A (a compound having 10 or more and less than 20 is denoted as A),B (a compound having 3 or more and less than 10 is denoted as B),,,,
